How the values were obtained:
[1] = test system: A549 non-small cell lung cancer cell line; test: SRB chemosensitivity (cytotoxicity) assay, A549; type: cell-based; settings: SRB test, 72 h incubation, mean of 3 experiments
Protocol: (§1) The compounds were evaluated on two non-small cell lung cancer cell lines (A549 and SW1573). These cell lines were characterized for deoxynucleoside analog sensitivity and activity of dCK previously.
(§2) The chemosensitivity assay used in this study was the sulforhodamineB (SRB) assay as described earlier (Keepers et al, Eur J. Cancer, 1991; Rubinstein et al, J. Natl. Cancer Inst., 1990). Cells were transferred to 96 wells plates on day 0; on day 1 a serial dilution of the drug was made from a stock solution and added to the cells in triplicate. After an incubation period of 72 h the cells were fixed for 1 hr at 4° C. with 50% trichloroacetic acid washed, air-dried and stained with 0.4% SRB. The optical density was measured at 492 nm with a microplate reader (Tecan, Salzburg, Austria).
(§3) The results were expressed as percentage of control growth: […]
(§4) The data were plotted in a graph to give a growth inhibition curve. From this growth inhibition curve the […] value was determined by interpolating at the 50% growth level. […] LogP was estimated using ChemDraw 8.0 ultra. IC50s are expressed as mean of 3 experiments.

[2] = test system: SW1573 non-small cell lung cancer cell line; test: SRB chemosensitivity (cytotoxicity) assay, SW1573; type: cell-based; settings: SRB test, 72 h incubation, mean of 3 experiments
Protocol: as §1, §2, §3, §4

[3] = test system: A549; test: SRB assay with addition of dipyridamole (role of ENT transport), A549; type: cell-based; settings: A549, dipyridamole added to the cells
Excerpt: These cell lines were chosen because they had been characterized earlier for sensitivity to gemcitabine and for the activity of the rate-limiting enzyme in the activation of gemcitabine and troxacitabine, deoxycytidine kinase (dCK); […] In addition, non-small cell lung cancer is routinely being treated with gemcitabine containing regimens. […] It should be noted that it is unlikely that they are being phosphorylated as prodrugs due to their steric hindrance. […] In a cell line we tested whether transport (ENT) would play a role by addition of dipyridamole to the cells. In A549 dipyridamole gave a 2-fold increase in the IC50, but this was not observed for the prodrugs. […] It is likely that these cycloalkyl and aromatic moieties at the N4 position of compounds 6l-t may render these compounds poor substrates of intracellular amidases. We therefore speculate that the amidase-catalyzed hydrolysis of the prodrugs may play an important role, allowing the release of troxacitabine into the intracellular compartment for activation (the triphosphate). The better activity profile of prodrugs 6h-k could have been the result of an increased uptake due to the high lipophilicity as well as of a high rate of amidase-catalyzed cleavage of the linear aliphatic derivatives intracellularly.

[4] = cited from earlier work
[5] = test system: Panc-02 pancreatic cancer cell line; test: SRB cytotoxicity assay, Panc-02; type: cell-based
Protocol: (§5) Sensitivity to four prodrugs with linear aliphatic chains of different length was determined by the SRB cytotoxicity assay^[12], the IC50 value of the drug was determined in the different cell lines by interpolating the growth inhibition curves. The tests were performed on the BxPC-3 and Panc-02 pancreatic cancer cell lines.

[6] = test system: BxPC-3 pancreatic cancer cell line; test: SRB cytotoxicity assay, BxPC-3; type: cell-based; settings: BxPC-3 (BxPC3) pancreatic cancer cell line
Protocol: as §5

CCCCCCCCCCCCCCCC(=O)Nc1ccn([C@@H]2CO[C@H](CO)O2)c(=O)n1 [Compound 6k, (−)-(2S,4S)-1-[2-(Hydroxymethyl)-1,3-dioxolan-4-yl]-4-N-palmitoyl-cytosine] showed an IC50 ([1]; Homo sapiens, A549) of 0.004 µM and an IC50 ([2]; Homo sapiens, SW1573) of 0.02 µM.

Work on O=C(Nc1ccn([C@@H]2CO[C@H](CO)O2)c(=O)n1)c1ccc(Br)cc1 [Compound 6r, (−)-(2S,4S)-1-[2-(Hydroxymethyl)-1,3-dioxolan-4-yl]-4-N-(p-bromobenzoyl)-cytosine] yielded an IC50 ([1]; Homo sapiens, A549) of 4.53 µM and an IC50 ([2]; Homo sapiens, SW1573) of 8.87 µM.

For CCCCC(=O)Nc1ccn([C@@H]2CO[C@H](CO)O2)c(=O)n1 [Compound 6e, (−)-(2S,4S)-1-[2-(Hydroxymethyl)-1,3-dioxolan-4-yl]-4-N-valeryl-cytosine], the IC50 ([1]; Homo sapiens, A549) was 5.23 µM and the IC50 ([2]; Homo sapiens, SW1573) was 9.13 µM.

O=C(Nc1ccn([C@@H]2CO[C@H](CO)O2)c(=O)n1)c1ccc(Cl)cc1Cl [Compound 6t, (−)-(2S,4S)-1-[2-(Hydroxymethyl)-1,3-dioxolan-4-yl]-4-N-(2,4-dichlorobenzoyl)-cytosine] gave an IC50 ([1]; Homo sapiens, A549) of 9.83 µM, an IC50 ([2]; Homo sapiens, SW1573) of 14.3 µM and a melting point of 185 to 187 °C.

Work on O=C(Nc1ccn([C@@H]2CO[C@H](CO)O2)c(=O)n1)c1ccccc1 [Compound 6o, (−)-(2S,4S)-1-[2-(Hydroxymethyl)-1,3-dioxolan-4-yl]-4-N-benzoyl-cytosine] yielded an IC50 ([1]; Homo sapiens, A549) of 8.53 µM and an IC50 ([2]; Homo sapiens, SW1573) of 13.7 µM.

With COc1ccc(C(=O)Nc2ccn([C@@H]3CO[C@H](CO)O3)c(=O)n2)cc1 [Compound 6s, (−)-(2S,4S)-1-[2-(Hydroxymethyl)-1,3-dioxolan-4-yl]-4-N-(p-methoxybenzoyl)-cytosine] the IC50 ([1]; Homo sapiens, A549) was 3.5 µM and the IC50 ([2]; Homo sapiens, SW1573) was 10 µM.

For Nc1ccn([C@@H]2CO[C@H](CO)O2)c(=O)n1 [Troxacitabine, (−)-2′-deoxy-3′-oxacytidine, reference compound], the “increase in the IC50 by dipyridamole” value [3] is given as 2 fold, the IC50 ([1]; Homo sapiens, A549) is given as 0.68 µM and the plasma half-life [4] is given as 82 h. For the same molecule, the IC50 ([2]; Homo sapiens, SW1573) was 2.3 µM.

Molecule O=c1nc(NC2CCCC2)ccn1[C@@H]1CO[C@H](CO)O1 [Compound 6m, (−)-(2S,4S)-1-[2-(Hydroxymethyl)-1,3-dioxolan-4-yl]-4-N-cyclopentyl-cytosine] has an IC50 ([1]; Homo sapiens, A549) of 2.97 µM and an IC50 ([2]; Homo sapiens, SW1573) of 8.8 µM.

In the case of Nc1ccn([C@@H]2O[C@H](CO)[C@@H](O)C2(F)F)c(=O)n1 [Gemcitabine, reference compound], the IC50 ([1]; Homo sapiens, A549) is reported as 0.013 µM and the IC50 ([2]; Homo sapiens, SW1573) is reported as 0.008 µM.

Work on CCCCCCCCC(=O)Nc1ccn([C@@H]2CO[C@H](CO)O2)c(=O)n1 [Compound 6h, (−)-(2S,4S)-1-[2-(Hydroxymethyl)-1,3-dioxolan-4-yl]-4-N-nonanoyl-cytosine] yielded an IC50 ([1]; Homo sapiens, A549) of 0.046 µM and an IC50 ([2]; Homo sapiens, SW1573) of 0.276 µM.

With Nc1ccn([C@@H]2O[C@H](CO)[C@@H](O)[C@@H]2O)c(=O)n1 [Cytarabine, reference compound] the IC50 ([1]; Homo sapiens, A549) was 0.62 µM and the IC50 ([2]; Homo sapiens, SW1573) was 10.5 µM.

O=C(Nc1ccn([C@@H]2CO[C@H](CO)O2)c(=O)n1)c1ccc(F)cc1 [Compound 6p, (−)-(2S,4S)-1-[2-(Hydroxymethyl)-1,3-dioxolan-4-yl]-4-N-(p-fluorobenzoyl)-cytosine] gave an IC50 ([1]; Homo sapiens, A549) of 8.67 µM and an IC50 ([2]; Homo sapiens, SW1573) of 15.3 µM.

Molecule CCCC(=O)Nc1ccn([C@@H]2CO[C@H](CO)O2)c(=O)n1 [Compound 6c, (−)-(2S,4S)-1-[2-(Hydroxymethyl)-1,3-dioxolan-4-yl]-4-N-butirryl-cytosine] has an IC50 [1] of 6.6 µM and an IC50 [2] of 8.07 µM.

O=c1nc(NC2CC2)ccn1[C@@H]1CO[C@H](CO)O1 [Compound 6l, (−)-(2SAS)-1-[2-(Hydroxymethyl)-1,3-dioxolan-4-yl]-4-N-cyclopropyl-cytosine] showed an IC50 [1] of 18.7 µM and an IC50 [2] of 22 µM.

Work on O=c1nc(NC2CCCCC2)ccn1[C@@H]1CO[C@H](CO)O1 [Compound 6n, (−)-(2S,4S)-1-[2-(Hydroxymethyl)-1,3-dioxolan-4-yl]-4-N-cyclohexyl-cytosine] yielded an IC50 ([1]; Homo sapiens, A549) of 7.37 µM and an IC50 ([2]; Homo sapiens, SW1573) of 14 µM.

With O=C(Nc1ccn([C@@H]2CO[C@H](CO)O2)c(=O)n1)c1ccc(Cl)cc1 [Compound 6q, (−)-(2S,4S)-1-[2-(Hydroxymethyl)-1,3-dioxolan-4-yl]-4-N-(p-chlorobenzoyl)-cytosine] the IC50 ([1]; Homo sapiens, A549) was 0.41 µM and the IC50 ([2]; Homo sapiens, SW1573) was 2.77 µM.

With CCCCCCC(=O)Nc1ccn([C@@H]2CO[C@H](CO)O2)c(=O)n1 [Compound 6g, (−)-(2S,4S)-1-[2-(Hydroxymethyl)-1,3-dioxolan-4-yl]-4-N-heptanoyl-cytosine] the IC50 ([1]; Homo sapiens, A549) was 1.04 µM and the IC50 ([2]; Homo sapiens, SW1573) was 2.4 µM.

Molecule CC(=O)Nc1ccn([C@@H]2CO[C@H](CO)O2)c(=O)n1 [Compound 6a, (−)-(2S,4S)-1-[2-(Hydroxymethyl)-1,3-dioxolan-4-yl]-4-N-acetyl-cytosine] has an IC50 ([1]; Homo sapiens, A549) of 6.87 µM and an IC50 ([2]; Homo sapiens, SW1573) of 10.7 µM.

In the case of CCCCCCCCCC(=O)Nc1ccn([C@@H]2CO[C@H](CO)O2)c(=O)n1 [Compound 6i, (−)-(2S,4S)-1-[2-(Hydroxymethyl)-1,3-dioxolan-4-yl]-4-N-decanoyl-cytosine], the IC50 ([1]; Homo sapiens, A549) is reported as 0.024 µM, the IC50 ([2]; Homo sapiens, SW1573) is reported as 0.04 µM and the melting point is reported as 141 to 143 °C. The “enhancement of sensitivity compared to troxacitabine” value [5] was 1400 fold.

For CCCCCCCCCCCCNc1ccn([C@@H]2CO[C@H](CO)O2)c(=O)n1 [Compound 6j, (−)-(2S,4S)-1-[2-(Hydroxymethyl)-1,3-dioxolan-4-yl]-4-N-lauryl-cytosine], the “decrease in IC50 / enhancement of sensitivity compared to troxacitabine” value [6] was 160 fold, the IC50 ([1]; Homo sapiens, A549) was 0.015 µM and the IC50 ([2]; Homo sapiens, SW1573) was 0.033 µM.
